Assay results published in ChEMBL document CHEMBL3217532, “New analyses of MIC90 data to aid antibacterial drug discovery” (2011).
Values after ≈ are worked out from the molar mass of the structure shown.

System: Pseudomonas aeruginosa
Assay: Antimicrobial activity against Pseudomonas aeruginosa 1611-09
Type: functional

Row | MIC90 [µg/mL] | Structure (SMILES)
1 | 0.06 (≈ 0.0843 µM) | C[C@H]1[C@H](NC(=O)/C(=N\OC(C)(C)C(=O)O)c2csc(N)n2)C(=O)N1C(=O)NS(=O)(=O)n1nc(-c2cc(=O)c(O)c[nH]2)n(CC(N)=O)c1=O

System: Pseudomonas aeruginosa
Assay: Antimicrobial activity against Pseudomonas aeruginosa 1567-05
Type: functional

Row | MIC90 [µg/mL] | Structure (SMILES)
2 | 0.125 (≈ 0.176 µM) | C[C@H]1[C@H](NC(=O)/C(=N\OC(C)(C)C(=O)O)c2csc(N)n2)C(=O)N1C(=O)NS(=O)(=O)n1nc(-c2cc(=O)c(O)c[nH]2)n(CC(N)=O)c1=O

System: Pseudomonas aeruginosa
Assay: Antimicrobial activity against Pseudomonas aeruginosa 1564-05
Type: functional

Row | MIC90 [µg/mL] | Structure (SMILES)
3 | 0.125 (≈ 0.176 µM) | C[C@H]1[C@H](NC(=O)/C(=N\OC(C)(C)C(=O)O)c2csc(N)n2)C(=O)N1C(=O)NS(=O)(=O)n1nc(-c2cc(=O)c(O)c[nH]2)n(CC(N)=O)c1=O

System: Pseudomonas aeruginosa
Assay: Antimicrobial activity against Pseudomonas aeruginosa 1765-00
Type: functional

Row | MIC90 [µg/mL] | Structure (SMILES)
4 | 1 (≈ 1.41 µM) | C[C@H]1[C@H](NC(=O)/C(=N\OC(C)(C)C(=O)O)c2csc(N)n2)C(=O)N1C(=O)NS(=O)(=O)n1nc(-c2cc(=O)c(O)c[nH]2)n(CC(N)=O)c1=O

System: Pseudomonas aeruginosa
Assay: Antimicrobial activity against Pseudomonas aeruginosa PA-4993
Type: functional

Row | MIC90 [µg/mL] | Structure (SMILES)
5 | 0.06 (≈ 0.0843 µM) | C[C@H]1[C@H](NC(=O)/C(=N\OC(C)(C)C(=O)O)c2csc(N)n2)C(=O)N1C(=O)NS(=O)(=O)n1nc(-c2cc(=O)c(O)c[nH]2)n(CC(N)=O)c1=O

System: Pseudomonas aeruginosa
Assay: Antimicrobial activity against Pseudomonas aeruginosa 1952-00
Type: functional

Row | MIC90 [µg/mL] | Structure (SMILES)
6 | 0.25 (≈ 0.351 µM) | C[C@H]1[C@H](NC(=O)/C(=N\OC(C)(C)C(=O)O)c2csc(N)n2)C(=O)N1C(=O)NS(=O)(=O)n1nc(-c2cc(=O)c(O)c[nH]2)n(CC(N)=O)c1=O

System: Pseudomonas aeruginosa
Assay: Antimicrobial activity against Pseudomonas aeruginosa PA-4991
Type: functional

Row | MIC90 [µg/mL] | Structure (SMILES)
7 | 0.25 (≈ 0.351 µM) | C[C@H]1[C@H](NC(=O)/C(=N\OC(C)(C)C(=O)O)c2csc(N)n2)C(=O)N1C(=O)NS(=O)(=O)n1nc(-c2cc(=O)c(O)c[nH]2)n(CC(N)=O)c1=O

System: Pseudomonas aeruginosa
Assay: Antimicrobial activity against Pseudomonas aeruginosa 1513-08
Type: functional

Row | MIC90 [µg/mL] | Structure (SMILES)
8 | 0.5 (≈ 0.703 µM) | C[C@H]1[C@H](NC(=O)/C(=N\OC(C)(C)C(=O)O)c2csc(N)n2)C(=O)N1C(=O)NS(=O)(=O)n1nc(-c2cc(=O)c(O)c[nH]2)n(CC(N)=O)c1=O

System: Pseudomonas aeruginosa
Assay: Antimicrobial activity against Pseudomonas aeruginosa 1767-00
Type: functional

Row | MIC90 [µg/mL] | Structure (SMILES)
9 | 0.25 (≈ 0.351 µM) | C[C@H]1[C@H](NC(=O)/C(=N\OC(C)(C)C(=O)O)c2csc(N)n2)C(=O)N1C(=O)NS(=O)(=O)n1nc(-c2cc(=O)c(O)c[nH]2)n(CC(N)=O)c1=O

System: Pseudomonas aeruginosa
Assay: Antimicrobial activity against Pseudomonas aeruginosa PA-4997
Type: functional

Row | MIC90 [µg/mL] | Structure (SMILES)
10 | 0.25 (≈ 0.351 µM) | C[C@H]1[C@H](NC(=O)/C(=N\OC(C)(C)C(=O)O)c2csc(N)n2)C(=O)N1C(=O)NS(=O)(=O)n1nc(-c2cc(=O)c(O)c[nH]2)n(CC(N)=O)c1=O

System: Pseudomonas aeruginosa
Assay: Antimicrobial activity against Pseudomonas aeruginosa 1752-00
Type: functional

Row | MIC90 [µg/mL] | Structure (SMILES)
11 | 0.25 (≈ 0.351 µM) | C[C@H]1[C@H](NC(=O)/C(=N\OC(C)(C)C(=O)O)c2csc(N)n2)C(=O)N1C(=O)NS(=O)(=O)n1nc(-c2cc(=O)c(O)c[nH]2)n(CC(N)=O)c1=O

System: Pseudomonas aeruginosa
Assay: Antimicrobial activity against Pseudomonas aeruginosa PA-4999
Type: functional

Row | MIC90 [µg/mL] | Structure (SMILES)
12 | 0.25 (≈ 0.351 µM) | C[C@H]1[C@H](NC(=O)/C(=N\OC(C)(C)C(=O)O)c2csc(N)n2)C(=O)N1C(=O)NS(=O)(=O)n1nc(-c2cc(=O)c(O)c[nH]2)n(CC(N)=O)c1=O

System: Pseudomonas aeruginosa
Assay: Antimicrobial activity against Pseudomonas aeruginosa PA-75
Type: functional

Row | MIC90 [µg/mL] | Structure (SMILES)
13 | 0.25 (≈ 0.351 µM) | C[C@H]1[C@H](NC(=O)/C(=N\OC(C)(C)C(=O)O)c2csc(N)n2)C(=O)N1C(=O)NS(=O)(=O)n1nc(-c2cc(=O)c(O)c[nH]2)n(CC(N)=O)c1=O

System: Pseudomonas aeruginosa
Assay: Antimicrobial activity against Pseudomonas aeruginosa 1515-08
Type: functional

Row | MIC90 [µg/mL] | Structure (SMILES)
14 | 0.25 (≈ 0.351 µM) | C[C@H]1[C@H](NC(=O)/C(=N\OC(C)(C)C(=O)O)c2csc(N)n2)C(=O)N1C(=O)NS(=O)(=O)n1nc(-c2cc(=O)c(O)c[nH]2)n(CC(N)=O)c1=O

System: Pseudomonas aeruginosa
Assay: Antimicrobial activity against Pseudomonas aeruginosa PA-4624
Type: functional

Row | MIC90 [µg/mL] | Structure (SMILES)
15 | 0.25 (≈ 0.351 µM) | C[C@H]1[C@H](NC(=O)/C(=N\OC(C)(C)C(=O)O)c2csc(N)n2)C(=O)N1C(=O)NS(=O)(=O)n1nc(-c2cc(=O)c(O)c[nH]2)n(CC(N)=O)c1=O

System: Pseudomonas aeruginosa
Assay: Antimicrobial activity against Pseudomonas aeruginosa 1569-05
Type: functional

Row | MIC90 [µg/mL] | Structure (SMILES)
16 | 0.25 (≈ 0.351 µM) | C[C@H]1[C@H](NC(=O)/C(=N\OC(C)(C)C(=O)O)c2csc(N)n2)C(=O)N1C(=O)NS(=O)(=O)n1nc(-c2cc(=O)c(O)c[nH]2)n(CC(N)=O)c1=O

System: Pseudomonas aeruginosa
Assay: Antimicrobial activity against Pseudomonas aeruginosa 1953-00
Type: functional

Row | MIC90 [µg/mL] | Structure (SMILES)
17 | 0.5 (≈ 0.703 µM) | C[C@H]1[C@H](NC(=O)/C(=N\OC(C)(C)C(=O)O)c2csc(N)n2)C(=O)N1C(=O)NS(=O)(=O)n1nc(-c2cc(=O)c(O)c[nH]2)n(CC(N)=O)c1=O

System: Pseudomonas aeruginosa
Assay: Antimicrobial activity against Pseudomonas aeruginosa 1509-08
Type: functional

Row | MIC90 [µg/mL] | Structure (SMILES)
18 | 1 (≈ 1.41 µM) | C[C@H]1[C@H](NC(=O)/C(=N\OC(C)(C)C(=O)O)c2csc(N)n2)C(=O)N1C(=O)NS(=O)(=O)n1nc(-c2cc(=O)c(O)c[nH]2)n(CC(N)=O)c1=O

System: Pseudomonas aeruginosa
Assay: Antimicrobial activity against Pseudomonas aeruginosa 1614-09
Type: functional

Row | MIC90 [µg/mL] | Structure (SMILES)
19 | 0.25 (≈ 0.351 µM) | C[C@H]1[C@H](NC(=O)/C(=N\OC(C)(C)C(=O)O)c2csc(N)n2)C(=O)N1C(=O)NS(=O)(=O)n1nc(-c2cc(=O)c(O)c[nH]2)n(CC(N)=O)c1=O

System: Pseudomonas aeruginosa
Assay: Antimicrobial activity against Pseudomonas aeruginosa 1955-00
Type: functional

Row | MIC90 [µg/mL] | Structure (SMILES)
20 | 0.125 (≈ 0.176 µM) | C[C@H]1[C@H](NC(=O)/C(=N\OC(C)(C)C(=O)O)c2csc(N)n2)C(=O)N1C(=O)NS(=O)(=O)n1nc(-c2cc(=O)c(O)c[nH]2)n(CC(N)=O)c1=O

System: Pseudomonas aeruginosa
Assay: Antimicrobial activity against Pseudomonas aeruginosa 1760-00
Type: functional

Row | MIC90 [µg/mL] | Structure (SMILES)
21 | 1 (≈ 1.41 µM) | C[C@H]1[C@H](NC(=O)/C(=N\OC(C)(C)C(=O)O)c2csc(N)n2)C(=O)N1C(=O)NS(=O)(=O)n1nc(-c2cc(=O)c(O)c[nH]2)n(CC(N)=O)c1=O

System: Pseudomonas aeruginosa
Assay: Antimicrobial activity against Pseudomonas aeruginosa PA-4990
Type: functional

Row | MIC90 [µg/mL] | Structure (SMILES)
22 | 0.25 (≈ 0.351 µM) | C[C@H]1[C@H](NC(=O)/C(=N\OC(C)(C)C(=O)O)c2csc(N)n2)C(=O)N1C(=O)NS(=O)(=O)n1nc(-c2cc(=O)c(O)c[nH]2)n(CC(N)=O)c1=O

System: Pseudomonas aeruginosa
Assay: Antimicrobial activity against Pseudomonas aeruginosa 1527-08
Type: functional

Row | MIC90 [µg/mL] | Structure (SMILES)
23 | 0.25 (≈ 0.351 µM) | C[C@H]1[C@H](NC(=O)/C(=N\OC(C)(C)C(=O)O)c2csc(N)n2)C(=O)N1C(=O)NS(=O)(=O)n1nc(-c2cc(=O)c(O)c[nH]2)n(CC(N)=O)c1=O

System: Pseudomonas aeruginosa
Assay: Antimicrobial activity against Pseudomonas aeruginosa 1526-08
Type: functional

Row | MIC90 [µg/mL] | Structure (SMILES)
24 | 0.5 (≈ 0.703 µM) | C[C@H]1[C@H](NC(=O)/C(=N\OC(C)(C)C(=O)O)c2csc(N)n2)C(=O)N1C(=O)NS(=O)(=O)n1nc(-c2cc(=O)c(O)c[nH]2)n(CC(N)=O)c1=O

System: Pseudomonas aeruginosa
Assay: Antimicrobial activity against Pseudomonas aeruginosa 1521-08
Type: functional

Row | MIC90 [µg/mL] | Structure (SMILES)
25 | 0.5 (≈ 0.703 µM) | C[C@H]1[C@H](NC(=O)/C(=N\OC(C)(C)C(=O)O)c2csc(N)n2)C(=O)N1C(=O)NS(=O)(=O)n1nc(-c2cc(=O)c(O)c[nH]2)n(CC(N)=O)c1=O
